The target in experiment [1] is full-length Tau aggregates (Homo sapiens, UniProt P10636). To be noted: highest concentration (range 0.01 mg/mL to 0.1 mg/mL); ThS fluorescence. On the procedure: (§1) Disaggregation assay: The potency of the metal complexes for disaggregating the preformed Tau aggregates was also analysed. Soluble Tau was dissolved in assembly buffer and was incubated at 37° C. for PHF assembly. The formation of aggregates was analysed by fluorescence assay and SDS-PAGE. Thus formed aggregates were diluted to 0.91 mg/mL final concentration in 20 mM BES buffer, pH 7.4 and this mixture was incubated with increasing concentration of metal complex as discussed earlier.
(§2) Thioflavin S fluorescence assay: 5 μl of reaction mixture was diluted with 8 μM ThS in 50 mM ammonium acetate, pH 7.4 and added to 384 well plates in triplicates. Subsequently blank was also prepared for subtracting background fluorescence. The plate was incubated in the dark before measuring ThS fluorescence for 20 minutes, at an emission wavelength of 521 nm by exciting it at 440 nm in Tecan Infinite 200 PRO multimode microplate reader.

The target of another experiment is Tau PHFs (Homo sapiens, UniProt P10636). The settings on record: for Tau disaggregation by TEM: 0 hour; for Tau PHF disaggregation by TEM: prolonged incubation. The procedure: as §1
Transmission Electron Microscopy (TEM): The degree of aggregates formation in presence of the metal complexes was analysed by TEM (Tecnai T-20). The assay mixture was diluted to 1 μM final concentration and spotted on the carbon coated copper grids. This was further stained by 2% uranyl acetate to observe the morphology of aggregates under TEM.

The next experiment deals with full-length Tau (Homo sapiens, UniProt P10636). To be noted: for maximum inhibition of full-length Tau aggregation: 0.05 and 0.1 mg/mL complex. The procedure: Tau was induced to aggregate as described previously with certain modifications. In presence heparin (17,500 Da) in the ratio of 4:1, Tau was polymerized in assembly buffer containing 20 mM BES. pH 7.4, 25 mM NaCl, 1 mM DTT, 0.01% NaN3 and protease inhibitor cocktails. The reaction mixture was incubated at 37° C. and the aggregates formation was monitored by ThS fluorescence, SDS-PAGE and TEM at certain time intervals. The Tau protein was allowed to assemble in presence and absence of compounds in increasing concentrations with constant Tau concentrations of 0.91 mg/mL and 0.28 mg/mL for full-length and four repeat Tau respectively. The changes in the conformation of Tau protein was monitored by CD spectroscopy.
as §2

Where [2] appears, read: heparin as inducer, ThS fluorescence.

Chain of full-length Tau aggregates (P10636 1-441 isoform P10636-8): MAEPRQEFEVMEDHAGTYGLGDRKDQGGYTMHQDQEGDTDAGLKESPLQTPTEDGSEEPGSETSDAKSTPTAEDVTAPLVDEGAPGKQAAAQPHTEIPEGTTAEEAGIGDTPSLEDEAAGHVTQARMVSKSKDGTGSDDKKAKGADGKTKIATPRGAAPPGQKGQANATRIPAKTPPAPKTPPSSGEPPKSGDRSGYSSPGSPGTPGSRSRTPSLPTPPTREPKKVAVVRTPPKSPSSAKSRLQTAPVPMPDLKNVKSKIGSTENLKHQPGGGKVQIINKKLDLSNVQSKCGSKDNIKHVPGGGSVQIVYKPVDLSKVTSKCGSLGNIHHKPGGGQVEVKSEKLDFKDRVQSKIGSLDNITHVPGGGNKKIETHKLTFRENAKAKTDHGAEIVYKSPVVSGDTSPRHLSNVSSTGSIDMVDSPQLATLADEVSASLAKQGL
Chain of full-length Tau (P10636 1-441 isoform P10636-8): as above
Chain of Tau PHFs (P10636 1-441 isoform P10636-8): as above

Regarding “Cobalt(II)(2,6-bis(piperazin-1-ylmethyl)pyridine)chloride [L1]”, the “disaggregation of full-length Tau aggregates” value in experiment [1] is reported as 74%. Also, at Tau PHFs, the “Tau disaggregation by TEM” value is on record as “very negligible effect” and the “Tau PHF disaggregation by TEM” value is on record as “destructed into shorter filaments”. The “inhibition rate of full-length Tau aggregation” value against full-length Tau (highest concentration of 0.1 mg/mL, heparin as inducer, ThS fluorescence) came to 97%.

For the compound `[Cl][Co][Cl].c1cc(CN2CCOCC2)nc(CN2CCOCC2)c1` [L2, Cobalt(II)(2,6-bis(morpholinomethyl)pyridine)chloride], in experiment [1], the “disaggregation of full-length Tau aggregates” value is given as 72%. Also, at Tau PHFs, the “Tau disaggregation by TEM” value is “very negligible effect” and the “Tau PHF disaggregation by TEM” value was “destructed into shorter filaments”. In addition, on full-length Tau (setting [2]), the “maximum inhibition of full-length Tau aggregation” value was “about 97%”. The “effectiveness in inhibiting aggregation compared between complexes” value on full-length Tau (lower concentration) is “more effective in comparison with L1 and L3”.

With “Cobalt(II)(2,6-bis((4-methylpiperazin-1-yl)methyl)pyridine)chloride [L3]”, the “disaggregation of full-length Tau aggregates” value in experiment [1] worked out at 77%. Besides, on Tau PHFs, the “Tau disaggregation by TEM” value is given as “very negligible effect” and the “Tau PHF disaggregation by TEM” value was “destructed into shorter filaments”. Further, the “maximum inhibition of full-length Tau aggregation” value at full-length Tau (setting [2]) is listed as “about 97%”.

Source of the values: patent US11040994B2, “Cobalt complexes, process for preparation and use thereof” (COUNCIL OF SCIENTIFIC AND INDUSTRIAL RESEARCH, priority 2017, dated 2021).
